Assay results taken from patent US8772316B2, “Substituted 6,7-dialkoxy-3-isoquinolinol derivatives as inhibitors of phosphodiesterase 10 (PDE10A)” (Allergan, Inc., priority 2011, dated 2014).
Counter-ions that a name gives are not always drawn.

target: PDE10A; assay: Phosphodiesterase assay (TR-FRET, LANCE cAMP kit); format: biochemical; settings: PDE10A (BPS Bioscience) 200 pg/well, biotin-cAMP substrate, 60 min at room temperature
Method: The PDE assay is based on the homogenous time-resolved fluorescence resonance energy transfer (TR-FRET) technology (LANCE® from Perkin Elmer). […] When there is PDE activity, resulting in the degradation of the cyclic nucleotide, the complex is not formed and a decrease in signal is observed.
The phosphodiesterase assay was developed using the LANCE® cAMP kit (PerkinElmer). The assay buffer contained HBSS with 5 mM HEPES, 0.1% BSA, and 1.5 mM MgCl2, pH 7.4. PDE10A (BPS Bioscience) was used at 200 pg/well (with a specific activity of 3200 pmole/min/μg with assay conditions: 10 mM Tris-HCl, pH7.4, 10 mM MgCl2, 1 mM MnCl2, 200 μM cAMP, 2.5 kU 5′ nucleotidase, 37° C., 20 min). […] Chemical compounds were dissolved in DMSO (final concentration 2% (v/v)).
In a 384-well plate, 2 μL inhibitor and 3 μL PDE were added to the well, followed by the addition of 5 μl substrate biotinylated cAMP (1:5). After 60 min incubation at room temperature, 10 μL of assay detection mixture was added to the assay plate. After 1 h at room temperature, the signal was measured on EnVision™ (Perkin Elmer).

SMILES	IC50
CCCc1nc(O)c(Cc2ccc3oc4ccccc4c3c2)c2cc(OC)c(OC)cc12 [Compound 7, 4-(Dibenzo[b,d]furan-2-ylmethyl)-6,7-dimethoxy-1-propylisoquinolin-3-ol hydrochloride]	0.5 nM
CCc1nc(O)c(Cc2cccc(-c3ccccc3)c2)c2cc(OC)c(OC)cc12 [Compound 8, 4-([1,1′-Biphenyl]-3-ylmethyl)-1-ethyl-6,7-dimethoxyisoquinolin-3-ol hydrochloride]	6710 nM
CCc1nc(O)c(Cc2cccc(-c3ccc(OC)cc3)c2)c2cc(OC)c(OC)cc12 [Compound 9, 1-ethyl-6,7-dimethoxy-4-((4′-methoxy-[1,1′-biphenyl]-3-yl)methyl)isoquinolin-3-ol hydrochloride]	10600 nM
CCc1nc(O)c(Cc2cccc(-c3cccc(N)c3)c2)c2cc(OC)c(OC)cc12 [Compound 10, 4-((3′-amino-[1,1′-biphenyl]-3-yl)methyl)-1-ethyl-6,7-dimethoxyisoquinolin-3-ol dihydrochloride]	52 nM
COc1cc2c(C)nc(O)c(Cc3cccc(-c4ccccc4)n3)c2cc1OC [Compound 12, 6,7-dimethoxy-1-methyl-4-((6-phenylpyridin-2-yl)methyl)isoquinolin-3-ol dihydrochloride]	94 nM
COc1cc2c(C)nc(O)c(Cc3cccc(-c4ccncc4)n3)c2cc1OC [Compound 14, 4-([2,4′-bipyridin]-6-ylmethyl)-6,7-dimethoxy-1-methylisoquinolin-3-ol trihydrochloride]	100 nM
COc1ccc(-c2cncc(Cc3c(O)nc(C)c4cc(OC)c(OC)cc34)c2)cc1 [Compound 16, 6,7-dimethoxy-4-((5-(4-methoxyphenyl)pyridin-3-yl)methyl)-1-methylisoquinolin-3-ol dihydrochloride]	69 nM
COc1cc2c(C)nc(O)c(Cc3ccc4ccccc4c3)c2cc1OC [Compound 17, 6,7-dimethoxy-1-methyl-4-(naphthalen-2-ylmethyl)isoquinolin-3-ol hydrochloride]	14 nM
COc1cc2c(C)nc(OC)c(Cc3ccc4ccccc4c3)c2cc1OC [Compound 18, 3,6,7-trimethoxy-1-methyl-4-(naphthalen-2-ylmethyl)isoquinoline hydrochloride]	1410 nM
CCCc1nc(O)c(Cc2ccc3ccccc3c2)c2cc(OC)c(OC)cc12 [Compound 20, 6,7-dimethoxy-4-(naphthalen-2-ylmethyl)-1-propylisoquinolin-3-ol hydrochloride]	34 nM
COc1cc2c(C)nc(O)c(Cc3ccc4ccccc4n3)c2cc1OC [Compound 23, 6,7-dimethoxy-1-methyl-4-(quinolin-2-ylmethyl)isoquinolin-3-ol dihydrochloride]	130 nM
COc1cc2c(C)nc(O)c(Cc3ccc4ncccc4c3)c2cc1OC [Compound 24, 6,7-dimethoxy-1-methyl-4-(quinolin-6-ylmethyl)isoquinolin-3-ol dihydrochloride]	86 nM
COc1cc2c(C)nc(O)c(Cc3cnc4ccccc4c3)c2cc1OC [Compound 26, 6,7-Dimethoxy-1-methyl-4-(quinolin-3-ylmethyl)isoquinolin-3-ol dihydrochloride]	24 nM
COc1cc2c(C)nc(O)c(Cc3cnc4cccc(OC)c4c3)c2cc1OC [Compound 27, 6,7-Dimethoxy-4-((5-methoxyquinolin-3-yl)methyl)-1-methylisoquinolin-3-ol dihydrochloride]	17 nM
CCOc1cccc2ncc(Cc3c(O)nc(C)c4cc(OC)c(OC)cc34)cc12 [Compound 28, 4-((5-Ethoxyquinolin-3-yl)methyl)-6,7-dimethoxy-1-methylisoquinolin-3-ol dihydrochloride]	6 nM
CCCc1nc(O)c(Cc2cnc3cc(OC)ccc3c2)c2cc(OC)c(OC)cc12 [Compound 32, 6,7-dimethoxy-4-((7-methoxyquinolin-3-yl)methyl)-1-propylisoquinolin-3-ol dihydrochloride]	4 nM
CNc1nc2ccc(C)cc2cc1Cc1c(O)nc(C)c2cc(OC)c(OC)cc12 [Compound 33, 6,7-Dimethoxy-1-methyl-4-((6-methyl-2-(methylamino)quinolin-3-yl)methyl)isoquinolin-3-ol dihydrochloride]	13 nM
CCCc1nc(O)c(Cc2cc3cc(C)ccc3nc2NC)c2cc(OC)c(OC)cc12 [Compound 34, 6,7-dimethoxy-4-((6-methyl-2-(methylamino)quinolin-3-yl)methyl)-1-propylisoquinolin-3-ol dihydrochloride]	1.9 nM
CNc1nc2ccc(OC)cc2cc1Cc1c(O)nc(C)c2cc(OC)c(OC)cc12 [Compound 37, 6,7-Dimethoxy-4-((6-methoxy-2-(methylamino)quinolin-3-yl)methyl)-1-methyl-isoquinolin-3-ol dihydrochloride]	6 nM
CCc1nc(O)c(Cc2cc3cc(OC)ccc3nc2NC)c2cc(OC)c(OC)cc12 [Compound 39, 1-ethyl-6,7-dimethoxy-4-((6-methoxy-2-(methylamino)quinolin-3-yl)methyl)isoquinolin-3-ol dihydrochloride]	1.6 nM
CCNc1nc2ccc(OC)cc2cc1Cc1c(O)nc(CC)c2cc(OC)c(OC)cc12 [Compound 40, 1-Ethyl-6,7-dimethoxy-4-((6-methoxy-2-(ethylamino)quinolin-3-yl)methyl)isoquinolin-3-ol dihydrochloride]	0.4 nM
CCNc1nc2ccc(OCC)cc2cc1Cc1c(O)nc(CC)c2cc(OC)c(OC)cc12 [Compound 41, 4-((6-Ethoxy-2-(ethylamino)quinolin-3-yl)methyl)-1-ethyl-6,7-dimethoxyisoquinolin-3-ol dihydrochloride]	5 nM

Continued, values first:

IC50	SMILES
0.5 nM	CCCNc1nc2ccc(OC)cc2cc1Cc1c(O)nc(CC)c2cc(OC)c(OC)cc12 [Compound 42, 1-ethyl-6,7-dimethoxy-4-((6-methoxy-2-(propylamino)quinolin-3-yl)methyl)isoquinolin-3-ol dihydrochloride]
8 nM	CCc1nc(O)c(Cc2cc3cc(OC)ccc3nc2NCc2ccccc2)c2cc(OC)c(OC)cc12 [Compound 44, 4-((2-(Benzylamino)-6-methoxyquinolin-3-yl)methyl)-1-ethyl-6,7-dimethoxyisoquinolin-3-ol dihydrochloride]
29 nM	CCNc1nc2ccc(OCC)cc2cc1Cc1c(O)nc(C(C)C)c2cc(OC)c(OC)cc12 [Compound 46, 4-((6-Ethoxy-2-(ethylamino)quinolin-3-yl)methyl)-1-isopropyl-6,7-dimethoxyisoquinolin-3-ol dihydrochloride]
0.8 nM	CCCc1nc(O)c(Cc2cc3cc(OC)ccc3nc2NC(C)C)c2cc(OC)c(OC)cc12 [Compound 53, 4-((2-(Isopropylamino)-6-methoxyquinolin-3-yl)methyl)-6,7-dimethoxy-1-propylisoquinolin-3-ol dihydrochloride]
23 nM	CCCc1nc(O)c(Cc2cc3cc(OC)ccc3nc2NCC(F)(F)F)c2cc(OC)c(OC)cc12 [Compound 54, 6,7-dimethoxy-4-((6-methoxy-2-((2,2,2-trifluoroethyl)amino)quinolin-3-yl)methyl)-1-propylisoquinolin-3-ol dihydrochloride]
4.4 nM	CCCc1nc(O)c(Cc2cc3cc(OC)ccc3nc2NCCNC(C)=O)c2cc(OC)c(OC)cc12 [Compound 55, N-(2-((3-((3-hydroxy-6,7-dimethoxy-1-propylisoquinolin-4-yl)methyl)-6-methoxyquinolin-2-yl)amino)ethyl)acetamide dihydrochloride]
175 nM	CCNc1nc2ccc(OC)cc2cc1Cc1c(OC(C)=O)nc(CNC(C)=O)c2cc(OC)c(OC)cc12 [Compound 56, 1-(Acetamidomethyl)-4-((2-(ethylamino)-6-methoxyquinolin-3-yl)methyl)-6,7-dimethoxyisoquinolin-3-yl acetate]
47 nM	CCNc1nc2ccc(OC)cc2cc1Cc1c(O)nc(CNC(C)=O)c2cc(OC)c(OC)cc12 [Compound 57, N-((4-((2-(ethylamino)-6-methoxyquinolin-3-yl)methyl)-3-hydroxy-6,7-dimethoxyisoquinolin-1-yl)methyl)acetamide dihydrochloride]
27 nM	CNc1nc2cc(O)c(O)cc2cc1Cc1c(O)nc(C)c2cc(OC)c(OC)cc12 [Compound 59, 3-((3-hydroxy-6,7-dimethoxy-1-methylisoquinolin-4-yl)methyl)-2-(methylamino)quinoline-6,7-diol dihydrochloride]
2.7 nM	CNc1nc2cc3c(cc2cc1Cc1c(O)nc(C)c2cc(OC)c(OC)cc12)OCO3 [Compound 60, 6,7-dimethoxy-1-methyl-4-((6-(methylamino)-[1,3]dioxolo[4,5-g]quinolin-7-yl)methyl)isoquinolin-3-ol dihydrochloride]
2.2 nM	CCc1nc(O)c(Cc2cc3cc4c(cc3nc2NC)OCO4)c2cc(OC)c(OC)cc12 [Compound 61, 1-ethyl-6,7-dimethoxy-4-((6-(methylamino)-[1,3]-dioxolo[4,5-g]quinolin-7-yl)methyl)isoquinolin-3-ol dihydrochloride]
1.1 nM	CCCc1nc(O)c(Cc2cc3cc4c(cc3nc2NC)OCO4)c2cc(OC)c(OC)cc12 [Compound 62, 6,7-dimethoxy-4-((6-(methylamino)-[1,3]-dioxolo[4,5-g]quinolin-7-yl)methyl)-1-propylisoquinolin-3-ol dihydrochloride]
